This is an account of results in patent US8623869B2, “Compounds useful as inhibitors of ATR kinase” (Vertex Pharmaceuticals Incorporated, priority 2010, dated 2014).

The target in the experiment is T1, full-length ATR (Homo sapiens, UniProt Q13535).
T1 construct: Assays were carried out at 25° C. in the presence of 5 nM full-length ATR
Briefly: ATR Inhibition Assay (radioactive-phosphate incorporation). It counts as biochemical. The note with it: Ki(app); 5 nM full-length ATR, 10 μM ATP, 800 μM target peptide, 25° C. The procedure: Compounds were screened for their ability to inhibit ATR kinase using a radioactive-phosphate incorporation assay. Assays were carried out in a mixture of 50 mM Tris/HCl (pH 7.5), 10 mM MgCl2 and 1 mM DTT. Final substrate concentrations were 10 μM [γ-33P]ATP (3mCi 33P ATP/mmol ATP, Perkin Elmer) and 800 μM target peptide (ASELPASQPQPFSAKKK).
Assays were carried out at 25° C. in the presence of 5 nM full-length ATR. An assay stock buffer solution was prepared containing all of the reagents listed above, with the exception of ATP and the test compound of interest. 13.5 μL of the stock solution was placed in a 96 well plate followed by addition of 2 μL of DMSO stock containing serial dilutions of the test compound (typically starting from a final concentration of 15 μM with 3-fold serial dilutions) in duplicate (final DMSO concentration 7%). The plate was pre-incubated for 10 minutes at 25° C. and the reaction initiated by addition of 15 μL [γ-33P]ATP (final concentration 10 μM).
The reaction was stopped after […] by the addition of 30 μL 0.1M phosphoric acid containing 2 mM ATP. A multiscreen phosphocellulose filter 96-well plate (Millipore, Cat no. MAPHN0B50) was pretreated with 100 μL 0.2M phosphoric acid prior to the addition of 45 μL of the stopped assay mixture. The plate was washed with 5×200 μL 0.2M phosphoric acid. After drying, 100 μL Optiphase ‘SuperMix’ liquid scintillation cocktail (Perkin Elmer) was added to the well prior to scintillation counting (1450 Microbeta Liquid Scintillation Counter, Wallac).
After removing mean background values for all of the data points, Ki(app) data were calculated from non-linear regression analysis of the initial rate data using the Prism software package (GraphPad Prism version 3.0cx for Macintosh, GraphPad Software, San Diego Calif., USA).

pKi: −log10 of the molar value. Where only a bound is given, the exact number is not on record here.

T1 sequence (Q13535 whole entry): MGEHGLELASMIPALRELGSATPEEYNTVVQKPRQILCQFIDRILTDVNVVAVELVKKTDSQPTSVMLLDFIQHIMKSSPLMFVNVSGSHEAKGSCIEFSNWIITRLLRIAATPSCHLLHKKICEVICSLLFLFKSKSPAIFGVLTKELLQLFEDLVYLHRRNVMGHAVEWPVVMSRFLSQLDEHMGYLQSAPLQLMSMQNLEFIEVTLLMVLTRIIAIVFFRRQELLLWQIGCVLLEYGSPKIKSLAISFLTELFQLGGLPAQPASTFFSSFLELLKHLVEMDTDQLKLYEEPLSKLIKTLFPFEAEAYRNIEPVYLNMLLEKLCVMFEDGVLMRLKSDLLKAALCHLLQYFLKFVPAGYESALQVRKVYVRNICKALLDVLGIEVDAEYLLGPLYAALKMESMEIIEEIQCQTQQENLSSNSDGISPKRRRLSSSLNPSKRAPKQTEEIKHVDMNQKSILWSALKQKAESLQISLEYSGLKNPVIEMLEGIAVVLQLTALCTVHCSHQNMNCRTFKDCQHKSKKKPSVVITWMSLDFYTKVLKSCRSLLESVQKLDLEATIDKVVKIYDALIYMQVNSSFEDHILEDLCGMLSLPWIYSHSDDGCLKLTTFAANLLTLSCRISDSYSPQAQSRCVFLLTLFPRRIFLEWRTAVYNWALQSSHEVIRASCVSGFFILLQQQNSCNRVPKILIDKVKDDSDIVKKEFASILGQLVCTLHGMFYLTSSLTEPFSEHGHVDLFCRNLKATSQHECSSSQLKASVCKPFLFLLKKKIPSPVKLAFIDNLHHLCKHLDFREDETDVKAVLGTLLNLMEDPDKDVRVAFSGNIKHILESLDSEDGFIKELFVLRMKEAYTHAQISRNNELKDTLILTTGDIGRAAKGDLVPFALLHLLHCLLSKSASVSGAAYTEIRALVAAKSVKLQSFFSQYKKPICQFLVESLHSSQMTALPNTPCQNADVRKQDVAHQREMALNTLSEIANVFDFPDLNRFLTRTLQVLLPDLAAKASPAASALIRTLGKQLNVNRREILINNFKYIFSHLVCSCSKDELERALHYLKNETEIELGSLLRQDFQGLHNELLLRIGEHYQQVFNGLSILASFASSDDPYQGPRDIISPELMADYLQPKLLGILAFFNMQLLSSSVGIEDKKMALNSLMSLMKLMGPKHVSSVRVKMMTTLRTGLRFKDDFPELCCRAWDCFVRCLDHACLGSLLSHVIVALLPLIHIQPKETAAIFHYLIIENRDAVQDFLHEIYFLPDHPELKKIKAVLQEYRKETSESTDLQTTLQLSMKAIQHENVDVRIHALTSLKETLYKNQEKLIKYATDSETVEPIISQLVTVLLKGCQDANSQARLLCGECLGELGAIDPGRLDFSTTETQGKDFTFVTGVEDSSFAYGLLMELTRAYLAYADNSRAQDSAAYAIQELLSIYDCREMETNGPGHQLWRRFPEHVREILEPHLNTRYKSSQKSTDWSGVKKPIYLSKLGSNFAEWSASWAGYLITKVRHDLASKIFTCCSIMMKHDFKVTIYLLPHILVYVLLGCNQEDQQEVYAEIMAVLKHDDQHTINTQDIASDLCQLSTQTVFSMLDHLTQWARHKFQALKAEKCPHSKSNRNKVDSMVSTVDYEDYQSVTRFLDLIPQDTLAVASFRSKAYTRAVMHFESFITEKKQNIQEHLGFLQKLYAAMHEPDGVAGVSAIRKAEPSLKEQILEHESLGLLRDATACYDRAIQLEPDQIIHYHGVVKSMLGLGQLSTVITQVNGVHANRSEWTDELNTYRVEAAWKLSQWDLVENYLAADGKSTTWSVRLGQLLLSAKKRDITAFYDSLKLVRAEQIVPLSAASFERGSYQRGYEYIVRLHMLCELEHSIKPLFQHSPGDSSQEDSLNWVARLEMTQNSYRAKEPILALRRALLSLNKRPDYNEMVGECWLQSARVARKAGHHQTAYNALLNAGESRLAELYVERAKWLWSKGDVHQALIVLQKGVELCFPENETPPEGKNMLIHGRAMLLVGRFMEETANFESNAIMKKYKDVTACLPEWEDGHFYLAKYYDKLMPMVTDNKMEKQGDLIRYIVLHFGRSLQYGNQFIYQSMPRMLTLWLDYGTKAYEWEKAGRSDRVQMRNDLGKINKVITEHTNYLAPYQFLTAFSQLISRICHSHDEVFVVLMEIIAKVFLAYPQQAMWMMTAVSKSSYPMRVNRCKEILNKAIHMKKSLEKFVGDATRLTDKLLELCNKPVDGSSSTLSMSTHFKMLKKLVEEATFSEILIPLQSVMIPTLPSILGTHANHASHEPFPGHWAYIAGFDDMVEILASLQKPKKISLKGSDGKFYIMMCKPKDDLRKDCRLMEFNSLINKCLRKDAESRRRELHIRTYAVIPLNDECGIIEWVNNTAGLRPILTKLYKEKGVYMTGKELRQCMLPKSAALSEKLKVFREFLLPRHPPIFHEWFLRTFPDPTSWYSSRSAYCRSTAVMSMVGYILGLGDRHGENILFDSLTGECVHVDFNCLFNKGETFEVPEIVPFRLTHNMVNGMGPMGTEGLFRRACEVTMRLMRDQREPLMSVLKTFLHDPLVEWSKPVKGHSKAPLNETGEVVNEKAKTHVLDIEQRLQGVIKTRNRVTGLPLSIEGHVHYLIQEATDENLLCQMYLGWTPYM

Turning to `CC(C)S(=O)(=O)c1ccc(-c2cnc3[nH]cc(-c4ccc(N(C)C)nc4)c3n2)cc1` [Compound I-37, 5-[2-(4-isopropylsulfonylphenyl)-5H-pyrrolo[2,3-b]pyrazin-7-yl]-N,N-dimethyl-pyridin-2-amine], the pKi is 7.30 to 8.00. The figure for `COCc1ccccc1-c1c[nH]c2ncc(-c3ccc(S(=O)(=O)C(C)C)cc3)nc12` [Compound I-17, 2-(4-isopropylsulfonylphenyl)-7-[2-(methoxymethyl)phenyl]-5H-pyrrolo[2,3-b]pyrazine] is less than 7.30. For the molecule `CC(C)S(=O)(=O)c1ccc(-c2cnc3[nH]cc(-c4ccc5ncccc5c4)c3n2)cc1` [Compound I-40, 6-[2-(4-isopropylsulfonylphenyl)-5H-pyrrolo[2,3-b]pyrazin-7-yl]quinoline], the pKi is not below 8.00. In the case of `CC(C)S(=O)(=O)c1ccc(-c2cnc3[nH]cc(-c4cccnc4NC(=O)C(C)(C)C)c3n2)cc1` [Compound I-60, N-[3-[2-(4-isopropylsulfonylphenyl)-5H-pyrrolo[2,3-b]pyrazin-7-yl]-2-pyridyl]2,2-dimethyl-propanamide], the pKi was less than 7.30.

As to `CC(C)S(=O)(=O)c1ccc(-c2cnc3[nH]cc(-c4cc(-c5ccccc5)no4)c3n2)cc1` [Compound I-3, 5-[2-(4-Isopropylsulfonylphenyl)-5H-pyrrolo[2,3-b]pyrazin-7-yl]-3-phenyl-isoxazole], the pKi was not below 8.00. The figure for `CC(C)S(=O)(=O)c1ccc(-c2cnc3[nH]cc(-c4cc5cc(F)ccc5n4C(=O)OC(C)(C)C)c3n2)cc1` [Compound I-56, tert-butyl 5-fluoro-2-[2-(4-isopropylsulfonylphenyl)-5H-pyrrolo[2,3-b]pyrazin-7-yl]indole-1-carboxylate] is less than 7.30. The same measure for `Cc1ccsc1-c1c[nH]c2ncc(-c3ccc(S(=O)(=O)C(C)C)cc3)nc12` [Compound I-28, 2-(4-isopropylsulfonylphenyl)-7-(3-methyl-2-thienyl)-5H-pyrrolo[2,3-b]pyrazine]: less than 7.30; for `CC(C)S(=O)(=O)c1ccc(-c2cnc3[nH]cc(-c4cncc5ccccc45)c3n2)cc1` [Compound I-42, 4-[2-(4-isopropylsulfonylphenyl)-5H-pyrrolo[2,3-b]pyrazin-7-yl]isoquinoline]: 7.30 to 8.00. The figure for `COc1cc(-c2c[nH]c3ncc(-c4ccc(S(=O)(=O)C(C)C)cc4)nc23)ccn1` [Compound I-33, 2-(4-isopropylsulfonylphenyl)-7-(2-methoxy-4-pyridyl)-5H-pyrrolo[2,3-b]pyrazine] is not below 8.00. `CC(C)S(=O)(=O)c1ccc(-c2cnc3[nH]cc(-c4ccccc4C(=O)N(C)C)c3n2)cc1` [Compound I-19, 2-[2-(4-isopropylsulfonylphenyl)-5H-pyrrolo[2,3-b]pyrazin-7-yl]-N,N-dimethyl-benzamide]: the pKi is less than 7.30. For the molecule `CC(C)S(=O)(=O)c1ccc(-c2cnc3[nH]cc(-c4scc5c4OCCO5)c3n2)cc1` [Compound I-20, 7-(2,3-dihydrothieno[3,4-b][1,4]dioxin-5-yl)-2-(4-isopropylsulfonylphenyl)-5H-pyrrolo[2,3-b]pyrazine], the pKi was 7.30 to 8.00.

`CC(C)S(=O)(=O)c1ccc(-c2cnc3[nH]cc(-c4cn(S(=O)(=O)c5ccccc5)c5ccccc45)c3n2)cc1` [Compound I-59, 7-[1-(benzenesulfonyl)indol-3-yl]-2-(4-isopropylsulfonylphenyl)-5H-pyrrolo[2,3-b]pyrazine]: the pKi is less than 7.30. The same measure for `CC(N)c1cccc(-c2cc(-c3c[nH]c4ncc(-c5ccc(S(=O)(=O)C(C)C)cc5)nc34)on2)c1` (centres unmarked) [Compound I-4, 1-[3-[5-[2-(4-isopropylsulfonylphenyl)-5H-pyrrolo[2,3-b]pyrazin-7-yl]isoxazol-3-yl]phenyl]ethanamine]: not below 8.00; for `CC(C)S(=O)(=O)c1ccc(-c2cnc3[nH]cc(-c4cc5ccccc5n4C(=O)OC(C)(C)C)c3n2)cc1` [Compound I-61, tert-butyl 2-[2-(4-isopropylsulfonylphenyl)-5H-pyrrolo[2,3-b]pyrazin-7-yl]indole-1-carboxylate]: less than 7.30.

As a reminder, the pKi is −log10 of the Ki, conventionally taken in molar units.
